The conditions of assay [1]: background art; cited from earlier work.
Assay [2] deals with neuronal cell death induced by the gp120 envelope glycoprotein of the AIDS virus. The settings on record: known property of VIP; cited from earlier work.
The test system of the next assay is PC12h cells. Put plainly: c-AMP-producing activity: c-AMP secreted by PC12h cells, radioimmunoassay kit. It counts as cell-based, rat. The following applies: sample added, 37° C. for 2 hours, c-AMP in culture solution, FIG. 1. The protocol:
In the present invention, c-AMP producing activity was assayed by determining the amount of c-AMP secreted out of cells with a radioimmunoassay kit for measuring c-AMP, using subcultured cell PC12h of rat adrenal medulla origin.
Established cells derived from adrenal medullas, PC12h, were cultivated in Dulbecco's modified Eagle's medium containing 10% semi-fetal calf serum at 37° C. A 48-well collagen-treated plate was inoculated with 5×10^4 cells per well, and cultivation was conducted for 7 to 10 days. Then, the culture medium was exchanged for 500 μl of Hank's balanced salt solution, followed by standing at 37° C. for 30 minutes. A sample to be tested dissolved in the same solution was added thereto, and cultivation was conducted at 37° C. for 2 hours. Subsequently, the amount of c-AMP in this culture solution was assayed by using a kit for measuring c-AMP (Amersham Inc.).

Ends that are not written are not given here.

On to “vasoactive intestinal peptide (HSDAVFTDNYTRLRKQMAVKKYLNSILN; ends and bridges not checked; UniProt P01282 125-152, looked up) [VIP, 68% homology with PACAP-27-NH2]”, for which the c-AMP-producing activity entry in assay [1] is listed as “very weak”; with PC12h cells it was “weak”. Besides, the “protection of neurons from cell death induced by gp120” value in assay [2] is “capable of protecting neurons from cell death”.
